{"source": "ChEMBL document CHEMBL1137944", "about": "“Imidazole derivatives as new potent and selective 20-HETE synthase inhibitors” (Bioorg Med Chem Lett, 2004)", "key": {"[1]": {"assay": "Inhibition of 20-HETE synthesis in human renal microsomes", "design": "species or system Microsome"}, "[2]": {"assay": "Distribution coefficient of compound was evaluated at pH 6.8", "conditions": "octanol/water"}, "Cytochrome P450 3A4": {"target": "Cytochrome P450 3A4 (Homo sapiens, UniProt P08684)", "sequence (P08684 whole entry)": "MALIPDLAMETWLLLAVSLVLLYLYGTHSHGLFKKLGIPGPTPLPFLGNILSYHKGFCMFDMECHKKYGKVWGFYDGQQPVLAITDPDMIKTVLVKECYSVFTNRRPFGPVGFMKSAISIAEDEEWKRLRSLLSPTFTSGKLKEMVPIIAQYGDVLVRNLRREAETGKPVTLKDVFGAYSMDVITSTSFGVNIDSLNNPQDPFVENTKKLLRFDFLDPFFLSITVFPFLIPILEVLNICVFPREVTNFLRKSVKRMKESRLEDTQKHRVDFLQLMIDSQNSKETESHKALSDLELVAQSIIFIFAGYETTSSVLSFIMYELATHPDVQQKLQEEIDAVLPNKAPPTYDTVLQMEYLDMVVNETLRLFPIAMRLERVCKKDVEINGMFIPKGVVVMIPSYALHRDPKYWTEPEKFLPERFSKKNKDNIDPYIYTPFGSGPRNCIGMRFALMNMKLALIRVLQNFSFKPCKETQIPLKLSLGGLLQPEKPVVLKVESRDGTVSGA", "assay": "Inhibition of cytochrome P450 3A4"}, "Cytochrome P450 1A2": {"target": "T1, Cytochrome P450 1A2 (Homo sapiens, UniProt P05177)", "T1 sequence (P05177 whole entry)": "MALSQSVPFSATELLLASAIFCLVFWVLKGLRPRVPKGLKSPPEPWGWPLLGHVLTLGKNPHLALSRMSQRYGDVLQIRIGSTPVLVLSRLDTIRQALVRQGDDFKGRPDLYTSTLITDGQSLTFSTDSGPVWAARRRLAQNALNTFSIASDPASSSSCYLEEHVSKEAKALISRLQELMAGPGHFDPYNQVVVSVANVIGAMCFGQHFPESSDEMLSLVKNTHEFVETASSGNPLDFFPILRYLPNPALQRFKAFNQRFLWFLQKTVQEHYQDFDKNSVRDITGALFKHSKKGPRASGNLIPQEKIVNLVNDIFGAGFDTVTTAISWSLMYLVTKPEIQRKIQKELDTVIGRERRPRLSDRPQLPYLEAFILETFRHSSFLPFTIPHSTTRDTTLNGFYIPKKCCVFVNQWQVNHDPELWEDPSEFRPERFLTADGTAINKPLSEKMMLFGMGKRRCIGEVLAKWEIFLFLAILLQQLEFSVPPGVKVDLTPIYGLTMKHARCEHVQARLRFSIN", "assay": "Inhibition of cytochrome P450 1A2"}, "Cytochrome P450 2D6": {"target": "Cytochrome P450 2D6 (Homo sapiens, UniProt P10635)", "sequence (P10635 whole entry)": "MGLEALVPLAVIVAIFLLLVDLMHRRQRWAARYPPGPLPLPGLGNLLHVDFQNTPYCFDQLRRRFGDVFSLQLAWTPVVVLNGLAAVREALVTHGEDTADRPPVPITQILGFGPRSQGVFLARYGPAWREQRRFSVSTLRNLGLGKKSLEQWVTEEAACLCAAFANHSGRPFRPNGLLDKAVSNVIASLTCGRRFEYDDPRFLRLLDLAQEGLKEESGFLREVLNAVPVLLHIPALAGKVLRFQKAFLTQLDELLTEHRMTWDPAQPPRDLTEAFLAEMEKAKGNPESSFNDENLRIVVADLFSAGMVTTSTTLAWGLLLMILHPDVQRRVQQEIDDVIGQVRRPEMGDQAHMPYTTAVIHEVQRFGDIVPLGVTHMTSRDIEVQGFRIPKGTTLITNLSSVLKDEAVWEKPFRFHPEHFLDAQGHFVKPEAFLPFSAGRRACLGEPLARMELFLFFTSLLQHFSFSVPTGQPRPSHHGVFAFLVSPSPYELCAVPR", "assay": "Inhibition of cytochrome P450 2D6"}, "Cytochrome P450 2C19": {"target": "Cytochrome P450 2C19 (Homo sapiens, UniProt P33261)", "sequence (P33261 whole entry)": "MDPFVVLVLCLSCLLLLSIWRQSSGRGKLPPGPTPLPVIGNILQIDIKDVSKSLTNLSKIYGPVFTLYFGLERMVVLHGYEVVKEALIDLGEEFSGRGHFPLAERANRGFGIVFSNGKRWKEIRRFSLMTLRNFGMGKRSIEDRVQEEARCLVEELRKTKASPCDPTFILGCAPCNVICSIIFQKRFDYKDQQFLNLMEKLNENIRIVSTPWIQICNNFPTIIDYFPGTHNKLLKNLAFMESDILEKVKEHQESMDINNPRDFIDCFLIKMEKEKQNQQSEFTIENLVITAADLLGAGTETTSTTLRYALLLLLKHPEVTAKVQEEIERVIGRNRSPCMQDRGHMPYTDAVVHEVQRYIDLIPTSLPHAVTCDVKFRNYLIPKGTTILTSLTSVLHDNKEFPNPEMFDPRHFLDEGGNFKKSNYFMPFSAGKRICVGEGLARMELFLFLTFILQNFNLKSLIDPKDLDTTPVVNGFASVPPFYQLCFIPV", "assay": "Inhibition of cytochrome P450 2C19"}, "Cytochrome P450 2C9": {"target": "Cytochrome P450 2C9 (Homo sapiens, UniProt P11712)", "sequence (P11712 whole entry)": "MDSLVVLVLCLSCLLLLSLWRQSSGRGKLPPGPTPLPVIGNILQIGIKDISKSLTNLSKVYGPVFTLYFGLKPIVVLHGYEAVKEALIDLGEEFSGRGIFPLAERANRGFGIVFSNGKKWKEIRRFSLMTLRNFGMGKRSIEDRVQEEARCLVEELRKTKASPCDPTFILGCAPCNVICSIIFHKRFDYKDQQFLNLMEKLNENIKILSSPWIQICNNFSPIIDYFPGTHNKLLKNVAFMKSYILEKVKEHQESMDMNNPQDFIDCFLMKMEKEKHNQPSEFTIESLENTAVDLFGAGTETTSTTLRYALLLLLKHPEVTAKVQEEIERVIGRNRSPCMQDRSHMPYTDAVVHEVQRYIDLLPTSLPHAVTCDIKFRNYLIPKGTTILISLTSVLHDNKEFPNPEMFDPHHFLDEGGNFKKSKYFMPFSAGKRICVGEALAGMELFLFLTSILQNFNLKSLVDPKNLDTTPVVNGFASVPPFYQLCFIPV", "assay": "Inhibition of cytochrome P450 2C9"}}}
{"smiles": "CCCCc1ccc(/N=C/NO)c(C)c1", "values": [{"measurement": "IC50", "setting": "[1]", "value": 8.9, "unit": "nM"}]}
{"smiles": "CCCCCCOc1ccc(-n2ccnc2)cn1", "values": [{"measurement": "IC50", "setting": "[1]", "value": 7.7, "unit": "nM"}]}
{"smiles": "CN(C)CCOc1ccc(-n2ccnc2)cc1", "values": [{"measurement": "logD", "setting": "[2]", "value": -0.08}, {"measurement": "IC50", "setting": "[1]", "value": 387, "unit": "nM"}, {"measurement": "IC50", "setting": "Cytochrome P450 3A4", "value": "> 100000", "unit": "nM"}, {"measurement": "IC50", "setting": "Cytochrome P450 1A2", "value": 15000, "unit": "nM"}, {"measurement": "IC50", "setting": "Cytochrome P450 2D6", "value": 1050, "unit": "nM"}]}
{"smiles": "CN(C)CCCOc1ccc(-n2ccnc2)cc1", "values": [{"measurement": "logD", "setting": "[2]", "value": -0.41}, {"measurement": "IC50", "setting": "[1]", "value": 51, "unit": "nM"}, {"measurement": "IC50", "setting": "Cytochrome P450 3A4", "value": 39000, "unit": "nM"}, {"measurement": "IC50", "setting": "Cytochrome P450 1A2", "value": 3400, "unit": "nM"}, {"measurement": "IC50", "setting": "Cytochrome P450 2D6", "value": 400, "unit": "nM"}]}
{"smiles": "c1ccc(COc2ccc(-n3ccnc3)cc2)nc1", "values": [{"measurement": "logD", "setting": "[2]", "value": 1.99}, {"measurement": "IC50", "setting": "[1]", "value": 4.5, "unit": "nM"}, {"measurement": "IC50", "setting": "Cytochrome P450 2C19", "value": "< 46", "unit": "nM"}, {"measurement": "IC50", "setting": "Cytochrome P450 3A4", "value": 630, "unit": "nM"}, {"measurement": "IC50", "setting": "Cytochrome P450 1A2", "value": 120, "unit": "nM"}, {"measurement": "IC50", "setting": "Cytochrome P450 2C9", "value": 130, "unit": "nM"}, {"measurement": "IC50", "setting": "Cytochrome P450 2D6", "value": 1040, "unit": "nM"}]}
{"smiles": "c1cc(CCCOc2ccc(-n3ccnc3)cc2)ccn1", "values": [{"measurement": "logD", "setting": "[2]", "value": 2.81}, {"measurement": "IC50", "setting": "[1]", "value": 1.1, "unit": "nM"}, {"measurement": "IC50", "setting": "Cytochrome P450 2C19", "value": "< 46", "unit": "nM"}, {"measurement": "IC50", "setting": "Cytochrome P450 3A4", "value": 344, "unit": "nM"}, {"measurement": "IC50", "setting": "Cytochrome P450 1A2", "value": "< 46", "unit": "nM"}, {"measurement": "IC50", "setting": "Cytochrome P450 2C9", "value": 101, "unit": "nM"}, {"measurement": "IC50", "setting": "Cytochrome P450 2D6", "value": 1040, "unit": "nM"}]}
{"smiles": "CN(C)CCCCCCOc1ccc(-n2ccnc2)cc1", "values": [{"measurement": "logD", "setting": "[2]", "value": 0.51}, {"measurement": "IC50", "setting": "[1]", "value": 2.2, "unit": "nM"}, {"measurement": "IC50", "setting": "Cytochrome P450 3A4", "value": 4460, "unit": "nM"}, {"measurement": "IC50", "setting": "Cytochrome P450 1A2", "value": 800, "unit": "nM"}, {"measurement": "IC50", "setting": "Cytochrome P450 2D6", "value": 410, "unit": "nM"}]}
{"smiles": "CCOC(=O)N1CCN(CCOc2ccc(-n3ccnc3)cc2)CC1", "values": [{"measurement": "logD", "setting": "[2]", "value": 2.27}, {"measurement": "IC50", "setting": "[1]", "value": 16, "unit": "nM"}, {"measurement": "IC50", "setting": "Cytochrome P450 2C19", "value": 469, "unit": "nM"}, {"measurement": "IC50", "setting": "Cytochrome P450 3A4", "value": "> 100000", "unit": "nM"}, {"measurement": "IC50", "setting": "Cytochrome P450 1A2", "value": 2240, "unit": "nM"}, {"measurement": "IC50", "setting": "Cytochrome P450 2C9", "value": 1440, "unit": "nM"}, {"measurement": "IC50", "setting": "Cytochrome P450 2D6", "value": 3200, "unit": "nM"}]}
{"smiles": "c1cn(-c2ccc(OCCN3CCOCC3)cc2)cn1", "values": [{"measurement": "logD", "setting": "[2]", "value": 0.91}, {"measurement": "IC50", "setting": "[1]", "value": 8.6, "unit": "nM"}, {"measurement": "IC50", "setting": "Cytochrome P450 2C19", "value": 91, "unit": "nM"}, {"measurement": "IC50", "setting": "Cytochrome P450 3A4", "value": 5670, "unit": "nM"}, {"measurement": "IC50", "setting": "Cytochrome P450 1A2", "value": 1480, "unit": "nM"}, {"measurement": "IC50", "setting": "Cytochrome P450 2C9", "value": 1810, "unit": "nM"}, {"measurement": "IC50", "setting": "Cytochrome P450 2D6", "value": 399, "unit": "nM"}]}
{"smiles": "c1cncc(CCCOc2ccc(-n3ccnc3)cc2)c1", "values": [{"measurement": "logD", "setting": "[2]", "value": 2.85}, {"measurement": "IC50", "setting": "[1]", "value": 1.1, "unit": "nM"}, {"measurement": "IC50", "setting": "Cytochrome P450 2C19", "value": "< 46", "unit": "nM"}, {"measurement": "IC50", "setting": "Cytochrome P450 3A4", "value": 417, "unit": "nM"}, {"measurement": "IC50", "setting": "Cytochrome P450 1A2", "value": "< 46", "unit": "nM"}, {"measurement": "IC50", "setting": "Cytochrome P450 2C9", "value": 185, "unit": "nM"}, {"measurement": "IC50", "setting": "Cytochrome P450 2D6", "value": 1300, "unit": "nM"}]}
{"smiles": "c1ccc(CCCOc2ccc(-n3ccnc3)cc2)nc1", "values": [{"measurement": "logD", "setting": "[2]", "value": 2.84}, {"measurement": "IC50", "setting": "[1]", "value": 2.1, "unit": "nM"}, {"measurement": "IC50", "setting": "Cytochrome P450 2C19", "value": "< 46", "unit": "nM"}, {"measurement": "IC50", "setting": "Cytochrome P450 3A4", "value": 252, "unit": "nM"}, {"measurement": "IC50", "setting": "Cytochrome P450 1A2", "value": "< 46", "unit": "nM"}, {"measurement": "IC50", "setting": "Cytochrome P450 2C9", "value": 129, "unit": "nM"}, {"measurement": "IC50", "setting": "Cytochrome P450 2D6", "value": 620, "unit": "nM"}]}
